The text below walks through data of patent US9000015B2, “Compounds for the treatment of addiction” (Gilead Sciences, Inc., priority 2011, dated 2015).

As usually defined, the IC50 is the concentration that gives 50% inhibition.

For one test, the target named is recombinant human ALDH2 (Homo sapiens (Human), UniProt P05091). The experiment in a line: ALDH2 assay (NADH formation). Type of test: biochemical. Particulars: 60 min pre-incubation, 150 uM formaldehyde, 2.5 mM NAD+; read-out: IC50 HALDH2. The method, then:
Standard ALDH2 reaction mixtures contained 150 uM formaldehyde, 2.5 mM NAD^+, 10 mM MgCl2 and 10 nM recombinant human ALDH2 in 50 mM Hepes buffer, pH 7.4, 0.01% Tween 20 in a final volume of 50 ul using 384-well plates. After 60 min of pre-incubation of compound with ALDH2 and formaldehyde, the reaction was started by adding NAD+ and the reaction mixture was allowed to proceed for 90 minutes. Activity of the enzyme was determined by monitoring NADH formation using Perkin-Elmer Envision Reader with excitation and emission wavelengths set at 340 and 460 nm, respectively.
(§1) Note: […] refers to the concentration of a compound that inhibits a reaction by 50%. In the case of competitive inhibition, IC50=2Ki when the substrate is present at the Km concentration, as per the relationship: Ki=IC50/[1+(substrate concentration/Km)].

Another test addresses HMAO-A (Homo sapiens (Human), UniProt P21397). As to the kind of experiment: MAO-A assay (luminogenic MAO substrate). The test is classed as biochemical. As to conditions: microsome MAO-A, 160 uM substrate. The method, then: (§2) MAO assays included luminogenic MAO substrate, reaction buffers, Luciferin Detection and the reconstitution buffer with eserase. Standard MAO reaction mixtures included microsome contained MAO-A (2 ug) or MAO-B (10 ug), 160 uM substrate for MAO-A or 16 uM substrate for MAO-B, MAO-A buffer (100 mM Hepes buffer, pH 7.5, 5% glycerol) or MAO-B buffer (100 mM Hepes, pH 7.5, 5% glycerol, 10% dimethyl sulfoxide) in a final volume of 30 ul. After 20 minutes of pre-incubation of the enzyme with compounds, the reaction was initiated by adding enzyme substrate and the reaction was allowed to proceed for 60 minutes. Reconstituted Luciferin Detection Reagent (30 ul) was then added is added to simultaneously stop the MAO reaction and convert the methyl ester derivative to luciferin and produce light. The amount of light produced is directly proportional to the activity of MAO. The mixtures were further incubated for 20 minutes and activity of the enzyme was determined using Perkin-Elmer Envision Reader.
as §1

A further test deals with HMAO-B (Homo sapiens (Human), UniProt P27338). As to the kind of experiment: MAO-B assay (luminogenic MAO substrate). The test is classed as biochemical. As to conditions: microsome MAO-B, 16 uM substrate. How it is done: as §2, §1
HMAO-B, sequence (P27338 whole entry): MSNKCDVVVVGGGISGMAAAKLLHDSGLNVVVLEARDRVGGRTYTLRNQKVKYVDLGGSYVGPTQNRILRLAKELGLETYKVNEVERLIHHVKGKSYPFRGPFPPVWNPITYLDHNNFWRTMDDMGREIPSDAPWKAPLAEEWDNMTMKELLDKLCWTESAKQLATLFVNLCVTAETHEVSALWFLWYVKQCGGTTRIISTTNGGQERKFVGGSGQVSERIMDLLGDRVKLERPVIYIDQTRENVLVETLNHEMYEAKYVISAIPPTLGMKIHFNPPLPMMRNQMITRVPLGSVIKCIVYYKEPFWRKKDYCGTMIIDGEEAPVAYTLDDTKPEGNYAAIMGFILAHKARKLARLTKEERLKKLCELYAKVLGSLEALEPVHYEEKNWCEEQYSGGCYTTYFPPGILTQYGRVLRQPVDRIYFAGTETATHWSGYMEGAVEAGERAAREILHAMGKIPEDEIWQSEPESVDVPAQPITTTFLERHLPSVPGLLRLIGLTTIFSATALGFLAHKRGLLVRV
Test [1] concerns Alcohol-preferring (iP) male rats. The experiment in a line: Rat alcohol self administration. The test is classed as in vivo. As to conditions: 1 hr before session, vs vehicle. An excerpt: Alcohol-preferring (iP) male rats were trained to daily (Monday to Friday) self-administer alcohol (10% v/v) under operant conditions. A fixed-ratio of 3 (FR3), where rats had to press a lever 3 times to get one drop of alcohol during 20-min sessions was used (Cowen et al, 2005a; Cowen et al., 2005b; Lawrence et al., 2006). Availability of alcohol was conditioned by the presence of an olfactory cue (2 drops of vanilla essence, placed on the bedding of the operant chamber directly under the active lever), plus a 1-sec light stimulus when FR3 was obtained. For each session, total alcohol and water responses were recorded. Following acquisition of lever pressing behavior and stable alcohol self-administration, rats were administered oral vehicle or compound of Example 5 (5, 10 and 30 mg-eq/kg) 1 hr before each session in a counterbalanced order. Every rat received all drug doses and vehicle once per week in a randomly assigned order.

The subject of test [2] is male Sprague Dawley (SD) rats. As to the kind of experiment: Rat cocaine cue reinstatement. Type of test: in vivo. As to conditions: for inhibition of cocaine cue reinstatement compared to vehicle: 1 hr before session. How it is done: Training of male Sprague Dawley (SD) rats had 3 separate stages. First, during self administration, animals were trained to lever press for cocaine with presentation of concomitant cues associated with drug delivery. Rats that reached criteria for addiction were included in the study. Afterward, during cue extinction, cocaine-cue dependent behavior was extinguished. Lastly, during cocaine cue reinstatement, the effect of compounds was tested on lever presses upon cue presentation (FIG. 2).
Rats were trained to self administer i.v. cocaine (0.35 mg/kg/injection) daily (Monday to Friday) in standard operant chambers with retractable levers (Coulbourn Instruments, PA). During the daily 2 hr session, rats received a 0.05 ml infusion of 0.35 mg/kg cocaine every time the active lever was pressed. A cue light and tone turned on for 2 sec together with activation of a pump that delivered the cocaine solution. Rats were required to maintain an infusion rate of ≧20+ per day for at least 10 days before being moved to extinction training.
During extinction sessions lever presses no longer produced cocaine infusion and cue light/tone presentation was absent. Rats received a maximum of 15 extinction sessions.
On the next day after reaching extinction criteria, rats were treated orally with vehicle (Formulation 2B: 25% PEG400/5% Vit E TPGS/1% SLS/69% water with 0.5% Methocel) or drug (compound of Example 2 or compound of Example 5) before the cue reinstatement session. Cue reinstatement began with a tone and cue light. This 2 hr session was identical to the self-administration session (cue light and tone present upon active lever press) except that no cocaine was delivered. The number of active lever presses was compared to extinction lever responding. This is considered a measure of reinstatement. The next day, rats were returned to extinction sessions for at least 2 or 3 more sessions. Rats then received a second and last reinstatement session with an opposite treatment to the one received on the first reinstatement session (vehicle or drug treatment). […] The light/tone presentation triggers this response and it is interpreted as a measure of reinstatement even though cocaine is not available.

In test [3] the test system is Male SD rats. As to the kind of experiment: Rat nicotine self administration, acute treatment. Type of test: in vivo. As to conditions: independent groups. How it is done: (§3) Male SD rats were trained to self administer i.v. nicotine (0.03 mg/kg/inj) daily (Monday to Friday) in standard operant chambers with retractable levers (MED Associates, Inc) as previously published (Levin et al., 2003; Levin et al., 2007). During the daily 45 min session, rats received 0.05 ml infusion of 0.03 mg/kg/infusion of nicotine every time the active lever was pressed. A cue light and tone turned on for 0.5 sec together with the activation of a pump that delivered the nicotine solution. Daily sessions were run for at least 10 days before the initiation of drug testing. Solutions of compounds of Example 2 and Example 5 were prepared fresh daily in Formulation 2B: 25% PEG400/5% Vit E TPGS/1% SLS/69% water with 0.5% Methocel) for oral dosing. Compound of Example 2 doses were administered in a counterbalanced design for testing 1 hr before each nicotine session. Every rat received all drug doses and vehicle in a randomly assigned order. The oral drug administrations were made twice per week.
Compound of Example 5 was tested in a study using 4 independent groups. Each group received either oral vehicle or 1 of the 3 doses of compound of Example 5 (5, 10 or 30 mg-eq/kg). […] The 5 mg/kg dose was ineffective.

The subject of test [4] is Male SD rats. As to the kind of experiment: Rat nicotine self administration, 7-day chronic treatment. Type of test: in vivo. The method, then:
as §3
Upon completion of the acute compound of Example 5 treatment study, the same animals were used to test the effect of 7-day chronic oral administration of compound of Example 5 in the nicotine self administration model. Rats were treated orally with compound of Example 5 (5, 10 or 30 mg-eq/kg) or vehicle 1 hr before nicotine self administration session for 7 consecutive days. […] Similar to the acute treatment, the 5 mg-eq/kg dose was ineffective (FIG. 7). […] Animals in nicotine self administration studies had to reach pre defined criteria (e.g. rat strain, minimum number of nicotine infusions, consistent baseline nicotine self administration throughout the study, patent iv catheters, etc.) to be included in analysis.

HMAO-A, sequence (P21397 whole entry): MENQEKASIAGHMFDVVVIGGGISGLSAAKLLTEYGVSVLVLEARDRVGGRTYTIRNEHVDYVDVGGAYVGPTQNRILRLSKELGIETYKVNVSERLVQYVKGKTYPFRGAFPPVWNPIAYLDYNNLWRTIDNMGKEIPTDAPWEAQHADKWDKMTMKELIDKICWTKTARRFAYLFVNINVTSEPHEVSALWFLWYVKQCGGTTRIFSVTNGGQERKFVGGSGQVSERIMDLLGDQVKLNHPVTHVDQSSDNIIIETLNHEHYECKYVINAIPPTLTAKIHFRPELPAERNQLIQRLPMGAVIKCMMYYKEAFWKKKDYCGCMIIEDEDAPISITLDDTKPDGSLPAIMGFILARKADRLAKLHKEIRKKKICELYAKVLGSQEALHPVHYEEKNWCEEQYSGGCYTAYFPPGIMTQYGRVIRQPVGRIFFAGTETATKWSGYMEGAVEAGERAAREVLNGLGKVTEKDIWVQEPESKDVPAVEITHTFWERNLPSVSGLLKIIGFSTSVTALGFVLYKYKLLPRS
recombinant human ALDH2, sequence (P05091 18-517): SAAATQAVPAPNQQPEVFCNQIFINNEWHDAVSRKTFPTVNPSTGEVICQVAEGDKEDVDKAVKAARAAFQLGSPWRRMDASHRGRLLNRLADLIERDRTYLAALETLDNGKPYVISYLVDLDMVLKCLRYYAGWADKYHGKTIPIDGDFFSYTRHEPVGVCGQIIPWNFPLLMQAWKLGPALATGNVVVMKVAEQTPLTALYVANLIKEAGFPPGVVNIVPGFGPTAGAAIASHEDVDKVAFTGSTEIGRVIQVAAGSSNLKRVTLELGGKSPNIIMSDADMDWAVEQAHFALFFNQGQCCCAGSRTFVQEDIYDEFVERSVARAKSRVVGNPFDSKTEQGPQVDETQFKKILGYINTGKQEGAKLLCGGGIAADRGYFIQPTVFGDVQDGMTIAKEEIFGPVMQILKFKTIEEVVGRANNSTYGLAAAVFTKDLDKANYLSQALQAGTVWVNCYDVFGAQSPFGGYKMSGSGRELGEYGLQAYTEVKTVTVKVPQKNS

As for `O=C(NCc1ccc(-c2ccn(COP(=O)(O)O)c(=O)c2)cc1)c1c(Cl)cccc1Cl` [Compound 14, phosphoric acid mono-(4-{4-[(2,6-dichloro-benzoylamino)-methyl]-phenyl}-2-oxo-2H-pyridin-1-ylmethyl) ester], the IC50 is > 10 µM on recombinant human ALDH2, > 130 µM at HMAO-A and > 130 µM at HMAO-B. The “number of lever presses for alcohol” value in test [1] (10 mg-eq/kg oral) and in test [1] (30 mg-eq/kg oral) was “significantly decreased” throughout. The “inhibition of cocaine cue reinstatement compared to vehicle” value in test [2] (2.5 mg-eq/kg oral, p>0.05, N.S.) came to 30%; in test [2] (5 mg-eq/kg oral) it was 59%; in test [2] (10 mg-eq/kg oral), 55%; in test [2] (30 mg-eq/kg oral), 50%. For the same molecule, in test [2] (2.5 mg-eq/kg oral, lowest dose tested), the “effect on cocaine cue reinstatement versus vehicle” value is listed as “not significantly different from vehicle”. Also, the “effect on number of nicotine infusions compared to vehicle” value is “ineffective” in the test with Male SD rats [3] (5 mg-eq/kg oral) and “ineffective” with Male SD rats [4] (5 mg-eq/kg oral, 7 consecutive days). Moreover, the “inhibition of number of nicotine infusions compared to vehicle” value in the test with Male SD rats [3] (10 mg-eq/kg oral) is 51%; with Male SD rats [3] (30 mg-eq/kg oral), 68%; in the test on Male SD rats [4] (10 mg-eq/kg oral, 7 consecutive days), 48%; in the test with Male SD rats [4] (30 mg-eq/kg oral, 7 consecutive days), 62%. Besides, the “tolerance to the therapeutic effect” value in the test on Male SD rats [4] (7-day chronic oral administration, data not shown) is “no development of tolerance”.
